Source: PubChem BioAssay AID1963858 (Molecular Pharmacology Branch, DTP, NCI, 2024)

Test system: HOP-62 multicell spheroids with HUVEC/MSC, viability
Experiment: Anticancer human tumor HOP-62 cell line growth inhibition [KRAS2];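 also: viability read after a week of compound exposure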;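 as to viability, T/C: 100% = DMSO vehicle-treated spheroids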
Conditions: for IC50: curve of first compound; for viability, T/C: stronger effect = lower value
Method in brief: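 KRAS-mutant tumor cells were grown as spheroids with HUVEC endothelial cells and human MSCs as stroma. Targeted agents were tested alone and with KRAS pathway inhibitors. Doses started at or near clinical Cmax, or 10 microM, descending half-log.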

[1] = second compound 0.0316 µM, first compound 0.0316 µM
[2] = second compound 0.0316 µM, first compound 0.1 µM
[3] = second compound 0.0316 µM, first compound 0.316 µM
[4] = second compound 0.0316 µM, first compound 1 µM
[5] = second compound 0.0316 µM, first compound 3.16 µM
[6] = second compound 0.0316 µM, first compound 10 µM
[7] = second compound 0.1 µM, first compound 0.0316 µM
[8] = second compound 0.1 µM, first compound 0.1 µM
[9] = second compound 0.1 µM, first compound 0.316 µM
[10] = second compound 0.1 µM, first compound 1 µM
[11] = second compound 0.1 µM, first compound 3.16 µM
[12] = second compound 0.1 µM, first compound 10 µM
[13] = second compound 0.316 µM, first compound 0.0316 µM
[14] = second compound 0.316 µM, first compound 0.1 µM
[15] = second compound 0.316 µM, first compound 0.316 µM
[16] = second compound 0.316 µM, first compound 1 µM
[17] = second compound 0.316 µM, first compound 3.16 µM
[18] = second compound 0.316 µM, first compound 10 µM
[19] = second compound 1 µM, first compound 0.0316 µM
[20] = second compound 1 µM, first compound 0.1 µM
[21] = second compound 1 µM, first compound 0.316 µM
[22] = second compound 1 µM, first compound 1 µM
[23] = second compound 1 µM, first compound 3.16 µM
[24] = second compound 1 µM, first compound 10 µM
[25] = second compound 3.16 µM, first compound 0.0316 µM
[26] = second compound 3.16 µM, first compound 0.1 µM
[27] = second compound 3.16 µM, first compound 0.316 µM
[28] = second compound 3.16 µM, first compound 1 µM
[29] = second compound 3.16 µM, first compound 3.16 µM
[30] = second compound 3.16 µM, first compound 10 µM

Compound	IC50 (second compound 0.0316 µM)	IC50 (second compound 0.1 µM)	IC50 (second compound 0.316 µM)	IC50 (second compound 1 µM)	IC50 (second compound 3.16 µM)	viability, T/C [1]	viability, T/C [2]	viability, T/C [3]	viability, T/C [4]	viability, T/C [5]	viability, T/C [7]	viability, T/C [8]	viability, T/C [9]	viability, T/C [10]	viability, T/C [11]	viability, T/C [13]	viability, T/C [14]	viability, T/C [15]	viability, T/C [16]	viability, T/C [17]	other results
COc1cc(Nc2ncc3c(n2)-c2ccc(Cl)cc2C(c2c(F)cccc2OC)=NC3)ccc1C(=O)O + C=CC(=O)N1CCN(c2nc(OCC3CCCN3C)nc3c2CCN(c2cccc4cccc(C)c24)C3)CC1CC#N	< 0.0316 µM	< 0.0316 µM	< 0.0316 µM	< 0.0316 µM	< 0.0316 µM	42.7%	35.9%	32.6%	27.1%	19.7%	35.7%	28.9%	25.1%	22.3%	17.4%	24.4%	19.5%	17%	14.3%	15%	viability, T/C [6]: 14.6%; viability, T/C [12]: 11.7%; viability, T/C [18]: 11.3%; viability, T/C [19]: 20.6%; viability, T/C [20]: 15.5%; viability, T/C [21]: 16.6%; viability, T/C [22]: 16.3%; viability, T/C [23]: 13.9%; viability, T/C [24]: 9.29%; viability, T/C [25]: 10.8%; viability, T/C [26]: 1.27%; viability, T/C [27]: 4.55%; viability, T/C [28]: 7.12%; viability, T/C [29]: 1.43%; viability, T/C [30]: 0.67%
CC(C)NCC(C(=O)N1CCN(c2ncnc3c2C(C)CC3O)CC1)c1ccc(Cl)cc1 (stereo not given) + C=CC(=O)N1CCN(c2nc(OCC3CCCN3C)nc3c2CCN(c2cccc4cccc(C)c24)C3)CC1CC#N	0.173 µM	0.048 µM	< 0.0316 µM	< 0.0316 µM	< 0.0316 µM	76.8%	57.4%	42.4%	18.6%	8.82%	55.9%	39.7%	16.1%	9.65%	6.16%	39.4%	29.7%	15.2%	9.41%	5.86%	viability, T/C [6]: 6.71%; viability, T/C [12]: 5.4%; viability, T/C [18]: 5.37%; viability, T/C [19]: 29.8%; viability, T/C [20]: 21%; viability, T/C [21]: 14.1%; viability, T/C [22]: 7.91%; viability, T/C [23]: 5.78%; viability, T/C [24]: 5%; viability, T/C [25]: 0.51%; viability, T/C [26]: 0.35%; viability, T/C [27]: 0.44%; viability, T/C [28]: 0.32%; viability, T/C [29]: 0.31%; viability, T/C [30]: 0.41%
CC(=O)OC12COC1CC(O)C1(C)C(=O)C(O)C3=C(C)C(OC(=O)C(O)C(NC(=O)OC(C)(C)C)c4ccccc4)CC(O)(C(OC(=O)c4ccccc4)C21)C3(C)C (stereo not given) + C=CC(=O)N1CCN(c2nc(OCC3CCCN3C)nc3c2CCN(c2cccc4cccc(C)c24)C3)CC1CC#N	< 0.01 µM	< 0.01 µM	< 0.01 µM	< 0.01 µM	< 0.01 µM	26.2%	26.6%	28.6%	30.2%	35.1%	22.7%	20.7%	20.1%	23.2%	23.2%	20.1%	17.5%	16.9%	20.2%	19.9%	viability, T/C (second compound 0.0316 µM, first compound 0.01 µM): 31.2%; viability, T/C (second compound 0.1 µM, first compound 0.01 µM): 19.4%; viability, T/C (second compound 0.316 µM, first compound 0.01 µM): 18.7%; viability, T/C (second compound 1 µM, first compound 0.01 µM): 18.7%; viability, T/C [19]: 12.1%; viability, T/C [20]: 17.1%; viability, T/C [21]: 16.2%; viability, T/C [22]: 18.2%; viability, T/C [23]: 18.9%; viability, T/C (second compound 3.16 µM, first compound 0.01 µM): 27.7%; viability, T/C [25]: 26.9%; viability, T/C [26]: 23.2%; viability, T/C [27]: 28.5%; viability, T/C [28]: 25.5%; viability, T/C [29]: 27.6%
